Laboratory results reported in US20250230138A1, “COMPOUNDS HAVING A T-STRUCTURE FORMED BY AT LEAST FOUR CYCLES FOR USE IN THE TREATMENT OF CANCER AND OTHER INDICATIONS” (TheRas, Inc., priority 2022, published 2025).
Read-outs that look alike come from different tables or passages of the source.

Key:
[1] = target: Cys242 in human PIK3CA (157-299) (Homo sapiens (Human), UniProt P42336); assay: Covalent modification assay using MALDI-TOF MS; format: biochemical; settings: 4 h reaction time point
Summary of the method: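 Covalent adduct formation was read by linear-mode MALDI-TOF with sinapinic acid matrix, reported as modified-protein peak height divided by total protein peak heights. Reactions held PIK3CA (157-299) at 1 or 3.33 μM in HEPES/NaCl/MgCl2 buffer, pH 7.3, sampled after 15 min to 4 h at room temperature.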

pAKT in BT474 cells = assay: Cell-based pAKT HTRF assay in BT474 cells; settings: BT474 cells, 4 hr incubation, read-out: pAKT inhibition IC50 in BT474 cells
Summary of the method: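 The HTRF signal (excitation 320 nm, emission 615 nm) came from d2/Eu Cryptate antibodies added to lysates and incubated 4–24 h at room temperature. Those lysates were taken from cells treated for 4 hr with compound, top concentration 3 μM, in 0.25% DMSO.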

[2] = 3.33 μM protein target, 1:7.5 protein to compound ratio (compounds 1-852)
[3] = 1 μM protein target, 1:5 protein to compound ratio (compounds 853-1279)

Sequence of Cys242 in human PIK3CA (157-299) (P42336 157-299): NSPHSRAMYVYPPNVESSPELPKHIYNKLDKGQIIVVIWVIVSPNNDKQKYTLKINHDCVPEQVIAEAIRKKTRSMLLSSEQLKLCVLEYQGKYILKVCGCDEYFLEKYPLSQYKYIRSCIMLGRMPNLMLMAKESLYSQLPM

Structure (SMILES)	IC50 (pAKT in BT474 cells; Compounds 10-999) [µM]	IC50 (pAKT in BT474 cells; Homo sapiens, BT-474, Compounds 10-999) [µM]	IC50 (pAKT in BT474 cells; Compounds 1000-1279) [µM]	% of modification [1, 2]	% of modification [1, 3]
C=CC(=O)N1CCc2nc(-c3nc(-c4ccc5c(c4)CCN(C(C)C)C5)c4ccsc4c3-c3ccc(F)cc3OCCOC)sc2C1 [Compound 135]	< 0.1	–	–	A (percent of modification of PIK3CA protein ≥75%)	–
C=CC(=O)N1CCn2nc(-c3nc(-c4cnn(C)c4)c4ccsc4c3-c3ccc(F)cc3OC(F)F)nc2C1 [Compound 216]	0.1 to 1	–	–	A (percent of modification of PIK3CA protein ≥75%)	–
C=CC(=O)N1CCn2nc(-c3nc(-c4ccc5nn(C)cc5c4)c4ccsc4c3-c3c(F)cc(F)cc3OCCO)cc2[C@@H]1C [Compound 644]	< 0.1	–	–	A (percent of modification of PIK3CA protein ≥75%)	–
C=C(F)C(=O)N1CCn2nc(-c3nc(-c4ccc5c(c4)CCN(C)C5)c4ccsc4c3-c3c(F)cc(F)cc3OC(C)C)cc2C1 [Compound 342]	< 0.1	–	–	B (50%<percent of modification <75%)	–
COc1cc(F)ccc1-c1c(-c2cnn(C3CN(C(=O)/C=C/CN(C)C)C3)c2)nc(-c2cnn(CC(F)F)c2)c2ccsc12 [Compound 137]	1 to 3	–	–	C (25%≤percent of modification <50%)	–
C=CC(=O)N1CC(n2nc(C)c(-c3nc(-c4ccc5c(c4)CCNC5)c4ccsc4c3-c3ccc(F)cc3OC)c2C)C1 [Compound 165]	< 0.1	–	–	A (percent of modification of PIK3CA protein ≥75%)	–
C=CC(=O)N1CCc2nc(-c3nc(-c4ccc(C5(N)CCC5)cc4)c4ccsc4c3-c3c(F)cc(F)cc3OCCOC)sc2C1 [Compound 436]	0.1 to 1	–	–	A (percent of modification of PIK3CA protein ≥75%)	–
C=CC(=O)N1CCn2nc(-c3nc(-c4cncc(C#N)c4)c4ccsc4c3-c3c(F)cc(F)cc3OC[C@@H](C)O)cc2[C@@H]1C [Compound 676]	< 0.1	–	–	A (percent of modification of PIK3CA protein ≥75%)	–
C=CC(=O)N1Cc2cc(-c3nc(-c4ccc5nn(C)cc5c4)c4ccsc4c3-c3c(F)cc(F)cc3OCCOC)nn2C[C@H]1C [Compound 668, 1-((R)-2-((S)-7-(2,4-difluoro-6-(2-methoxyethoxy)phenyl)-4-(2-methyl-2H-indazol-5-yl)thieno[3,2-c]pyridin-6-yl)-6-methyl-6,7-dihydropyrazolo[1,5-a]pyrazin-5(4H)-yl)prop-2-en-1-one]	< 0.1	–	–	A (percent of modification of PIK3CA protein ≥75%)	–
C=CC(=O)N1CC(n2cc(-c3nc(-c4cnn(CC(F)F)c4)c4ccsc4c3-c3ccc(F)cc3OCCOC)cn2)C1 [Compound 232]	< 0.1	–	–	A (percent of modification of PIK3CA protein ≥75%)	–
C=CC(=O)N1CCc2nc(-c3nc(-c4ccc5nn(C)cc5c4)c4ccsc4c3-c3c(F)cc(F)cc3OCCOC)sc2C1 [Compound 427]	< 0.1	–	–	A (percent of modification of PIK3CA protein ≥75%)	–
C=CC(=O)N1CCc2nc(-c3nc(-c4cnc5c(c4)CNCC5)c4ccsc4c3-c3ccc(F)cc3OCCOC)sc2C1 [Compound 227]	< 0.1	–	–	A (percent of modification of PIK3CA protein ≥75%)	–
C=CC(=O)N1CCn2nc(-c3nc(-c4ccc5c(c4)CCN(C(C)C)C5)c4ccsc4c3-c3ccc(F)cc3OCCOC)nc2C1 [Compound 185, 1-[2-[7-[4-fluoro-2-(2-methoxyethoxy)phenyl]-4-(2-isopropyl-3,4-dihydro-1H-isoquinolin-6-yl)thieno[3,2-c]pyridin-6-yl]-6,8-dihydro-5H-[1,2,4]triazolo[1,5-a]pyrazin-7-yl]prop-2-en-1-one]	–	< 0.1	–	A (percent of modification of PIK3CA protein ≥75%)	–
C=CC(=O)N1CCn2nc(-c3nc(C4CCN(C(C)C)CC4)c4ccsc4c3-c3ccc(F)cc3OCCOC)cc2C1 [Compound 220]	< 0.1	–	–	A (percent of modification of PIK3CA protein ≥75%)	–
C=CC(=O)N1CCc2nc(-c3nc(-c4ccc5oc(C)nc5c4)c4ccsc4c3-c3c(F)cc(F)cc3OCCOC)sc2C1 [Compound 428]	< 0.1	–	–	A (percent of modification of PIK3CA protein ≥75%)	–
C=CC(=O)N1CCn2nc(-c3nc(-c4ccc5ncn(C)c5c4)c4ccsc4c3-c3c(F)cc(F)cc3OCCO)cc2[C@H]1C [Compound 653]	< 0.1	–	–	B (50%<percent of modification <75%)	–
C=CC(=O)N1CCn2nc(-c3nc(-c4ccc5nn(C)cc5c4)c4ccsc4c3-c3c(F)cc(F)cc3OCCO)cc2[C@H]1C [Compound 650]	< 0.1	–	–	C (25%≤percent of modification <50%)	–
C=CC(=O)N1CC(n2cc(-c3nc(C4CCC5(CC4)CNC5)c4ccsc4c3-c3ccc(F)cc3OCCOC)cn2)C1 [Compound 147]	1 to 3	–	–	A (percent of modification of PIK3CA protein ≥75%)	–
C=CC(=O)N1CCc2ccc(-c3nc(-c4cnc5c(c4)CNC(=O)C5)c4ccsc4c3-c3c(F)cc(F)cc3OCCOC)cc2C1 [Compound 579, (R)-3-(6-(2-acryloyl-1,2,3,4-tetrahydroisoquinolin-7-yl)-7-(2,4-difluoro-6-(2-methoxyethoxy)phenyl)thieno[3,2-c]pyridin-4-yl)-5,8-dihydro-1,6-naphthyridin-7(6H)-one]	1 to 3	–	–	D (percent of modification <25%)	–
C=CC(=O)N1CCc2nc(-c3nc(-c4ccc5c(c4)CCC5N)c4ccsc4c3-c3ccc(F)cc3OCCOC)sc2C1 (stereo not drawn) [Compound 160]	< 0.1	–	–	A (percent of modification of PIK3CA protein ≥75%)	–
C=CC(=O)N1CCc2nc(-c3nc(-c4ccn(C(C)C)c(=O)c4)c4ccsc4c3-c3ccc(F)cc3OCCOC)sc2C1 [Compound 139]	0.1 to 1	–	–	A (percent of modification of PIK3CA protein ≥75%)	–
C=CC(=O)N1CCn2nc(-c3nc(-c4ccc5c(c4)CCN(C)C5)c4ccsc4c3-c3c(F)cc(F)cc3OC(C)C)cc2[C@@H]1C [Compound 502]	< 0.1	–	–	A (percent of modification of PIK3CA protein ≥75%)	–
C=C(F)C(=O)N1CC(n2cc(-c3nc(-c4ccc5c(c4)CCNC5)c4ccsc4c3-c3ccc(F)cc3OC)cn2)C1 [Compound 114]	1 to 3	–	–	A (percent of modification of PIK3CA protein ≥75%)	–
C=CC(=O)N1CCn2nc(-c3nc(-c4ccc5c(c4)CCN(C)C5)c4ccsc4c3-c3ccc(F)cc3OC)cc2C1 [Compound 265]	< 0.1	–	–	A (percent of modification of PIK3CA protein ≥75%)	–

Second part, led by results:

IC50 (pAKT in BT474 cells; Compounds 10-999) [µM]	IC50 (pAKT in BT474 cells; Homo sapiens, BT-474, Compounds 10-999) [µM]	IC50 (pAKT in BT474 cells; Compounds 1000-1279) [µM]	Structure (SMILES)	% of modification [1, 2]	% of modification [1, 3]
< 0.1	–	–	C=CC(=O)N1CCn2nc(-c3nc(-c4ccn5ncnc5c4)c4ccsc4c3-c3c(F)cc(F)cc3OCCOC)cc2C1C (stereo not drawn) [Compound 985]	–	A (percent of modification of PIK3CA protein ≥75%)
< 0.1	–	–	C=CC(=O)N1CCc2ncc(-c3nc(-c4cn(C)cn4)c4ccsc4c3-c3c(F)cc(F)cc3OCCOC)cc2C1 [Compound 943]	–	A (percent of modification of PIK3CA protein ≥75%)
< 0.1	–	–	C=CC(=O)N1Cc2cc(-c3nc(-c4cn(C)cn4)c4ccsc4c3-c3c(F)cc(F)cc3OC)nn2C[C@H]1C [Compound 843]	A (percent of modification of PIK3CA protein ≥75%)	–
0.1 to 1	–	–	C=CC(=O)N1Cc2cc(-c3nc(-c4ccc5c(c4)C(=O)N(C)C5)c4ccsc4c3-c3c(F)cc(F)cc3OC)nn2[C@@H](C)C1 [Compound 905]	–	C (25%≤percent of modification <50%)
< 0.1	–	–	C=CC(=O)N1CCn2nc(-c3nc(-c4ccc5c(c4)CN(C)C5=O)c4ccsc4c3-c3c(F)cc(F)cc3OC[C@@H](C)O)cc2[C@H]1C [Compound 763]	A (percent of modification of PIK3CA protein ≥75%)	–
< 0.1	–	–	C=CC(=O)N1Cc2cc(-c3nc(-c4cnnc(C)c4)c4ccsc4c3-c3c(F)cc(F)cc3OCCOC)nn2[C@@H](C)C1 [Compound 740]	A (percent of modification of PIK3CA protein ≥75%)	–
< 0.1	–	–	C=CC(=O)N1Cc2cc(-c3nc(-c4ccc5cn(C)nc5c4)c4ccsc4c3-c3c(F)cc(F)cc3OCCOC)nn2C[C@H]1C [Compound 737]	A (percent of modification of PIK3CA protein ≥75%)	–
< 0.1	–	–	C=CC(=O)N1Cc2cc(-c3nc(-c4ccc5c(c4)C(=O)NC5)c4ccsc4c3-c3c(F)cc(F)cc3OCCOC)nn2CC1C (stereo not drawn) [Compound 768]	A (percent of modification of PIK3CA protein ≥75%)	–
< 0.1	–	–	C=CC(=O)N1Cc2cc(-c3nc(-c4ccc5c(c4)CN(C)C5=O)c4ccsc4c3-c3c(F)cc(F)cc3OC)nn2C(C)C1 (stereo not drawn) [Compound 946]	–	A (percent of modification of PIK3CA protein ≥75%)
< 0.1	–	–	C=CC(=O)N1CCn2nc(-c3nc(-c4cnc5cn(C)nc5c4)c4ccsc4c3-c3c(F)cc(F)cc3OCCO)cc2C1C (stereo not drawn) [Compound 913]	–	A (percent of modification of PIK3CA protein ≥75%)
–	–	> 1	C=CC(=O)N1CCc2ccc(-c3nc(-c4ccc5c(c4)CN(C)CC5(F)F)c4ccsc4c3-c3c(F)cc(F)cc3OCCOC)cc2C1 [Compound 1272]	–	D (percent of modification <25%)
–	–	< 0.1	C=CC(=O)N1CCn2nc(-c3nc(-c4ccc5nn(C)cc5c4)c4ccsc4c3-c3c(F)cc(F)cc3OCC(C)(C)O)cc2[C@H]1C [Compound 1129]	–	A (percent of modification of PIK3CA protein ≥75%)
